In patent US11608328B2, “Chemical probes to identify anti-mycobacterial MmpL3 inhibitors” (Creighton University, priority 2019, dated 2023):
Values after ≈ are worked out from the molar mass of the structure shown. Values joined by “and” are separate entries in the source; they are usually repeats but may differ in a detail not shown here. Equal entries are not always repeated. “Also recorded” adds a separate entry of the source. Where two headings read alike, the source gives them in different places. Marks after values point to notes of the source that are not given here.

How the values were obtained:
Mtb [1] = conditions: reported by Brown et al., Bioorg. Med. Chem. 2011; cited from earlier work
purified MmpL3-GFP = purified MmpL3-GFP (Mycobacterium tuberculosis, UniProt P9WJV5); assay type: binding; conditions: 2 μM Compound 2 with increasing inhibitor concentrations
[2] = system: MsmgΔmmpL3 expressing mmpL3tb S591W; assay type: cell-based, Mycobacterium smegmatis
[3] = system: MsmgΔmmpL3 expressing mmpL3tb S288T; assay type: cell-based, Mycobacterium smegmatis
MmpL3tb (MmpL3^WT) = MmpL3tb (MmpL3^WT) (Mycobacterium tuberculosis, UniProt P9WJV5); assay type: binding; conditions: 50, 100 and 200 μM
[4] = system: MsmgΔmmpL3 expressing mmpL3tb S591G; assay type: cell-based, Mycobacterium smegmatis
[5] = system: transmembrane potential (ΔΨ) of intact Mtb H37Rv mc^26206 cells; test: Membrane potential measurement with DiOC2(3) in intact cells; assay type: cell-based, Mycobacterium tuberculosis
[6] = system: transfer of mycolic acids onto their cell envelope acceptors in MsmgΔmmpL3/pMVGH1-mmpL3tb; assay type: cell-based; conditions: 3 hours
[7] = system: MsmgΔmmpL3 expressing mmpL3tb F644C/I/L; assay type: cell-based, Mycobacterium smegmatis
[8] = system: MsmgΔmmpL3 expressing mmpL3tb V684A; assay type: cell-based, Mycobacterium smegmatis
[9] = system: MsmgΔmmpL3 expressing mmpL3tb G253R; assay type: cell-based, Mycobacterium smegmatis
Mtb [10] = test: MIC values against Mtb used for the PMF assays; assay type: cell-based, Mycobacterium tuberculosis; conditions: against Mtb, FIG. 8 legend, read-out: MIC values
[11] = system: MsmgΔmmpL3 expressing mmpL3tb V684I; assay type: cell-based, Mycobacterium smegmatis
[12] = system: MsmgΔmmpL3 expressing mmpL3tb F644Y; assay type: cell-based, Mycobacterium smegmatis
[13] = system: MsmgΔmmpL3 expressing mmpL3tb L189R; assay type: cell-based, Mycobacterium smegmatis
[14] = system: MsmgΔmmpL3 expressing mmpL3tb V684W; assay type: cell-based, Mycobacterium smegmatis
[15] = system: transmembrane electrochemical proton gradient (ΔpH) of intact Mtb H37Rv mc^26206 cells; test: Electrochemical proton gradient measurement with CMFDA in intact cells; assay type: cell-based, Mycobacterium tuberculosis
[16] = system: MsmgΔmmpL3 expressing mmpL3tb G253W; assay type: cell-based, Mycobacterium smegmatis
[17] = system: MsmgΔmmpL3 expressing mmpL3tb S309C; assay type: cell-based, Mycobacterium smegmatis
[18] = system: MsmgΔmmpL3 expressing mmpL3tb G253E; assay type: cell-based, Mycobacterium smegmatis
[19] = system: MsmgΔmmpL3 expressing wild-type mmpL3tb; test: microbe, parasite or virus in culture; assay type: cell-based; conditions: MmpL3 WT
[20] = system: MsmgΔmmpL3 expressing mmpL3tb F644C; assay type: cell-based, Mycobacterium smegmatis
[21] = system: MsmgΔmmpL3 expressing mmpL3tb S591I; assay type: cell-based, Mycobacterium smegmatis
[22] = BLI assay buffer
purified MmpL3tb protein = purified MmpL3tb protein (Mycobacterium tuberculosis, UniProt P9WJV5); test: Surface Plasmon Resonance binding to immobilized MmpL3tb; conditions: for ka2 / kd1 / kd2 / ka1: SPR global fit; for ka1: HEPES-TX buffer with 5% DMSO; for Model (best-fit kinetic model): SPR sensorgrams fit globally; for Kd: equilibrium dissociation constant calculated from the rate constants; for SPR binding signal: in words
[23] = system: Mtb H37Rv mc^26206 inverted membrane vesicles (IMVs); test: Succinate-driven proton translocation assay (ACMA) in inverted membrane vesicles; assay type: biochemical, Mycobacterium tuberculosis; conditions: one and four times MIC against Mtb
Procedure: (§1) FIG. 19A: The reactions were initiated by adding 5 mM succinate. Upon stabilization of the signal, control compounds (INH, RIF, nigericin), the MmpL3 inhibitors or diluent (water, used for INH, or 0.2% DMSO, used for all other compounds) were added and proton translocation monitored fluorimetrically. MmpL3 inhibitors and controls were used at one and four times their MIC concentrations against Mtb. Shown are the averages and standard deviations (error bars) of triplicate measurements.
(§2) Succinate-driven proton translocation assays with the fluorescent substrate ACMA were conducted as previously described (see e.g., Li et al. J. Med. Chem. 2014, 57: 3126-3139) to determine the effect of MmpL3 inhibitors on the electrochemical proton gradient of Mtb H37Rv mc^26206 and E. coli BL21(DE3) IMVs. IMVs (0.18 mg/mL membrane proteins) were pre-incubated at 37° C. in 10 mM HEPES-KOH pH 7.5, 100 mM KCl, 5 mM MgCl2 containing 2 μM ACMA and the baseline monitored for 10 min with a fluorescence spectrophotometer (Victor X5, PerkinElmer). The reaction was then initiated by adding 5 mM succinate. Upon stabilization of the signal, control compounds (INH, RIF, nigericin), MmpL3 inhibitors, or diluent (0.2% DMSO or water) were added and proton translocation monitored fluorimetrically. The excitation and emission wavelengths were 410 nm and 480 nm, respectively.

[24] = system: MsmgΔmmpL3 expressing mmpL3tb LI89A; test: microbe, parasite or virus in culture; assay type: cell-based; conditions: Table 2, mutant LI89A
[25] = system: MsmgΔmmpL3 expressing mmpL3tb Q372R; assay type: cell-based, Mycobacterium smegmatis
[26] = system: MsmgΔmmpL3 expressing mmpL3tb L567P; assay type: cell-based, Mycobacterium smegmatis
E. coli BL21(DE3) IMVs = test: Succinate-driven proton translocation assay (ACMA) in inverted membrane vesicles; assay type: biochemical; conditions: 2 μg/mL
Procedure: as §1, §2

[27] = system: MsmgΔmmpL3 expressing mmpL3tb T311I; assay type: cell-based, Mycobacterium smegmatis
[28] = system: MmpL3tb-GFP in MsmgΔmmpL3/pMVGH1-mmpL3tb-GFP cells; assay type: cell-based; conditions: 2 μM probe, 4 h at 37° C.
[29] = system: MsmgΔmmpL3 expressing mmpL3tb V684G; assay type: cell-based, Mycobacterium smegmatis
[30] = biological target: T1, MmpL3tb- and MmpL3tb-GFP-coated particles (Mycobacterium tuberculosis, UniProt P9WJV5); assay type: binding; conditions: 15 min at room temperature; various probe concentrations
T1 construct: His tag; made in house; host or cells: Mycobacterium smegmatis ΔmmpL3 carrying pMVGH1-mmpL3tb or pMVGH1-mmpL3tb-gfp

[31] = biological target: MmpL3tb in MsmgΔmmpL3/pMVGH1-mmpL3tb cells (Mycobacterium tuberculosis, UniProt P9WJV5); assay type: cell-based
[32] = Mycolicibacterium smegmatis, Tables 1A-1B, read-out: MIC

purified MmpL3-GFP, sequence (P9WJV5 whole entry): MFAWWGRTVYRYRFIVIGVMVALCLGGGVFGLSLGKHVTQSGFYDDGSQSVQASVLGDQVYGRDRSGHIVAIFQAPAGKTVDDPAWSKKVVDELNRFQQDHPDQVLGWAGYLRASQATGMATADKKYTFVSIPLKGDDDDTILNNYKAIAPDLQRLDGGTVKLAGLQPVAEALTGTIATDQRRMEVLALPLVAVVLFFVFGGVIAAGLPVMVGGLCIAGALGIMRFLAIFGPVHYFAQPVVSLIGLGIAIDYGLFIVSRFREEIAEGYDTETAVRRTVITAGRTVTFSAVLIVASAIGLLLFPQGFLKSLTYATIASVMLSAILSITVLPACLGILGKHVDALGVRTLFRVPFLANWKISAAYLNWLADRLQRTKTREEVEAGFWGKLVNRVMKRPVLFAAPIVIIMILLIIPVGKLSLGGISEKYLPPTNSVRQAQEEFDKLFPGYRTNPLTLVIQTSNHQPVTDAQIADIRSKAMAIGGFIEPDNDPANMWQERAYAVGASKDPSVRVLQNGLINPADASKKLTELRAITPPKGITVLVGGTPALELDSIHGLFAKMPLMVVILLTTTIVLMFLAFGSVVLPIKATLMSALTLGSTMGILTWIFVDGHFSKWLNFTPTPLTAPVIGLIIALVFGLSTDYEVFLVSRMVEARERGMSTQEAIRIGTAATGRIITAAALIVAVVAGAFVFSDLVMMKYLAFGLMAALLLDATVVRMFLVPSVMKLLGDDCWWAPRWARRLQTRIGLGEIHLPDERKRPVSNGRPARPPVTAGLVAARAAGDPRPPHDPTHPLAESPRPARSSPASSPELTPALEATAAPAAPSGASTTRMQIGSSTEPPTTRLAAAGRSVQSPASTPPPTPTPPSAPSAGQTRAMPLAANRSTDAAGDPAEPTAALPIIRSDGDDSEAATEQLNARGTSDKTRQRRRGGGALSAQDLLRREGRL
purified MmpL3tb protein, sequence (P9WJV5 whole entry): as above
MmpL3tb (MmpL3^WT), sequence (P9WJV5 whole entry): as above
MmpL3tb in MsmgΔmmpL3/pMVGH1-mmpL3tb cells, sequence (P9WJV5 whole entry, looked up, stated change not applied): as the sequence (P9WJV5 whole entry) above
T1 sequence (P9WJV5 whole entry): as above

Row | SMILES | displacement of Compound 2 from purified MmpL3tb (purified MmpL3-GFP) | MIC [2] | MIC [3] | BLI binding signal (MmpL3tb (MmpL3^WT)) | MIC [4] | effect on membrane potential (ΔΨ) [5] | inhibition of transfer of mycolic acids to cell envelope acceptors [6] | MIC [7] | MIC [8] | MIC [17] | MIC [18] | MIC [20] | ka2 (purified MmpL3tb protein) | kd1 (purified MmpL3tb protein) [s⁻¹] | kd2 (purified MmpL3tb protein) [s⁻¹] | ka1 (purified MmpL3tb protein) [M⁻¹ s⁻¹] | Model (best-fit kinetic model) (purified MmpL3tb protein) | MIC [25] | MIC [26] | MIC [27] [µg/mL] | other results
1 | COC(=O)c1ccc(NC(=O)NC23CC4CC(CC(C4)C2)C3)cc1O [AU, methyl 1-(1-adamantyl)-3-(4-aminosalicylate)urea] | – | – | – | – | – | – | – | – | – | – | – | – | – | – | – | – | – | – | – | – | Mtb MIC value (Mtb [1]): 0.4 µg/mL
2 | Cc1c(CN2CCN(C)CC2)cc(-c2ccc(Cl)cc2)n1-c1ccc(Cl)cc1 [BM212] | clear concentration-dependent displacement | 4^c μg/mL | 25.0^b μg/mL | only yielded weak binding signals | 1^c μg/mL | only showed an effect on ΔΨ at the highest concentration tested (8×MIC) | actually targeted MmpL3tb in the Msmg recombinant system | 4 µg/mL (≈ 9.65 µM) | 6.25 µg/mL and 4 µg/mL | 12.5 µg/mL (≈ 30.2 µM) | 12.5 µg/mL and 8 µg/mL | 3.13 µg/mL (≈ 7.55 µM) | 0.005 1/RU*s | 1.67 | 0.0222 | 1054.8 | Two-state reaction | 12.5 µg/mL (≈ 30.2 µM) | 12.5 µg/mL (≈ 30.2 µM) | 12.5 (≈ 30.2 µM) | MIC [9]: 8 µg/mL (≈ 19.3 µM); MIC (Mtb [10]): 3.76 µM (≈ 1.56 µg/mL); MIC [11]: 2 µg/mL (≈ 4.83 µM); MIC [12]: 8 µg/mL (≈ 19.3 µM); MIC [13]: 12.5 µg/mL and 8 µg/mL; MIC [14]: 4 µg/mL (≈ 9.65 µM); effect on electrochemical proton gradient (ΔpH) [15]: collapsed ΔpH; MIC [16]: 8 µg/mL (≈ 19.3 µM); MIC ([19]; Table 2): 4 µg/mL (≈ 9.65 µM); MIC ([19]; Tables 1A-1B): 6.25 µg/mL (≈ 15.1 µM); MIC [21]: 25.0^b μg/mL and 16 μg/mL; solubility limit in 5% DMSO [22]: 50 µM (≈ 20.7 µg/mL); Kd (purified MmpL3tb protein; read-out: KD1): 1290 µM; effect on ΔpH of Mtb IMVs [23]: increase of fluorescence intensity indicative of ΔpH collapse; MIC [24]: 8 µg/mL (≈ 19.3 µM); effect on ΔpH of E. coli IMVs (E. coli BL21(DE3) IMVs): showed no such activity
3 | C[C@@H]1C(NC(=O)c2cc3cc(OCc4cn(CCCCCCNC(=O)c5ccc(-c6c7ccc(=[N+](C)C)cc-7oc7cc(N(C)C)ccc67)c(C(=O)O)c5)nn4)ccc3[nH]2)C[C@H]2C[C@@H]1C2(C)C (some centres unmarked) [Compound 2] | – | – | 4 µg/mL | – | – | – | – | – | 4 µg/mL | 8 µg/mL | 8 µg/mL | 8 µg/mL | 540.582 1/RU*s | 0.02 | 0.1556 | 36380.1 | Heterogeneous ligand | 16^b μg/mL | 4 µg/mL | 4 | colocalization with MmpL3tb-GFP [28]: colocalization of the probes with MmpL3tb-GFP; MIC [29]: 4 µg/mL; probe binding to coated particles (MFI) [30]: concentration-dependent binding; MIC [13]: 8 µg/mL; MIC [19, 32]: 4 µg/mL; MIC [21]: 8 µg/mL; Kd (purified MmpL3tb protein; read-out: KD1): 0.5 µM; Kd (purified MmpL3tb protein; read-out: KD2): 288 µM; SPR binding signal (purified MmpL3tb protein): strong SPR signals
4 | NNC(=O)c1ccncc1 [INH, isoniazid] | No significant displacement | – | – | – | – | – | – | – | – | – | – | – | – | – | – | – | – | – | – | – | MIC (Mtb [10]; Mycobacterium tuberculosis): 0.58 µM (≈ 0.0795 µg/mL); displacement of probe (Compound 1 or Compound 2) in intact cells [31]: not observed
5 | CC(C)=CCC/C(C)=C/CNCCNC1C2CC3CC(C2)CC1C3 (centres unmarked) [SQ109] | not significant | 0.31^c μg/mL | 3.13^a μg/mL | consistently bound to MmpL3tb with the strongest signals | 0.31^c μg/mL | dissipated ΔΨ in a concentration-dependent manner | actually targeted MmpL3tb in the Msmg recombinant system | 0.62-1.25^ μg/mL | – | 6.25^a μg/mL | 1.25^b μg/mL and 1.25 μg/mL | 1.56^b μg/mL | 0.025 1/RU*s | 2.32 | 0.0436 | 1208.2 | Two-state reaction | 0.78 µg/mL (≈ 2.36 µM) | 1.56^b μg/mL | 0.78 (≈ 2.36 µM) | MIC [9]: 0.31-0.62^c μg/mL; MIC (Mtb [10]; Mycobacterium tuberculosis): 2.36 µM (≈ 0.78 µg/mL); MIC [11]: 0.31-0.62^ μg/mL; MIC [29]: 0.39 μg/mL and 0.31-0.62^ μg/mL; MIC [12]: 0.15-0.31^c μg/mL; MIC [14]: 0.07-0.15^d μg/mL; effect on electrochemical proton gradient (ΔpH) [15]: collapsed ΔpH; MIC [16]: 0.15-0.3^d μg/mL; MIC ([19]; Mycolicibacterium smegmatis, Table 2, read-out: MIC): 0.31 µg/mL (≈ 0.938 µM); MIC [19, 32]: 0.39 µg/mL (≈ 1.18 µM); SPR binding signal (purified MmpL3tb protein): strong SPR signals; effect on ΔpH of Mtb IMVs [23]: increase of fluorescence intensity indicative of ΔpH collapse; MIC ([24]; Mycolicibacterium smegmatis, read-out: MIC): 0.31 to 0.62 µg/mL (≈ 0.938 to 1.88 µM); effect on ΔpH of E. coli IMVs (E. coli BL21(DE3) IMVs): collapse the ΔpH of E. coli IMVs; also recorded: similarly dissipated the pH gradient of IMVs prepared from E. coli
